# Numbered stars: 1 amine (or outer) side, 2 acyl side, 3 side chain; on linkers, the order of the positions; unused ones are H or OH. Bridge positions count the residues as written; N and C are the ends. Square brackets hold non-standard residues; d marks the D form. Peptide text beside a SMILES is read from it. * marks the point of attachment. X26 = O=C([C@H](Cc1ccc(-c2cccc(S(=O)(=O)N3CCOCC3)c2)cc1)N[*:1])[*:2]; Bip(4'-COOH) = N[C@@H](Cc1ccc(-c2ccc(C(=O)O)cc2)cc1)C(=O)O; Bip(4'-NHAc) = CC(=O)Nc1ccc(-c2ccc(C[C@H](N)C(=O)O)cc2)cc1; X52 = Nc1ccc(-c2ccc(C[C@H](N[*:1])C(=O)[*:2])cc2)cn1; X38 = O=C([C@H](CCCn1cc(-c2ccccc2)nn1)N[*:1])[*:2]; Phe(3-CF3) = N[C@@H](Cc1cccc(C(F)(F)F)c1)C(=O)O; Ala(morpholin-4-yl) = N[C@@H](CN1CCOCC1)C(=O)O; Phe(4-COOH) = N[C@@H](Cc1ccc(C(=O)O)cc1)C(=O)O; Bip = N[C@@H](Cc1ccc(-c2ccccc2)cc1)C(=O)O; Phe(3-Me) = Cc1cccc(C[C@H](N)C(=O)O)c1; Val(3-OH) = CC(C)(O)[C@H](N)C(=O)O; hPhe = N[C@@H](CCc1ccccc1)C(=O)O; Cha = N[C@@H](CC1CCCCC1)C(=O)O; Carboxymethyl = O=C(O)C*; NMeA = CN[C@@H](C)C(=O)O; Orn = NCCC[C@H](N)C(=O)O; Dab = NCC[C@H](N)C(=O)O
# Target: T1, Alexa fluor-647 labeled human PD-L1-Ig binding to Jurkat cell line over-expressing human PD-1 (Homo sapiens, UniProt Q15116)
# T1 construct: expressed in transfected cells; host or cells: Jurkat
# Test: Jurkat-PD-1 Cell Binding High-Content Screening Assay (CBA): Method 3 (Alexa fluor-647 labeled PD-L1-Ig)
# Conditions: Jurkat-PD-1 cells, Alexa fluor-647 labeled PD-L1-Ig 177 nM; head μM; read-out: CBA Method 3 μM
# Procedure, shortened: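 Jurkat cells over-expressing human PD-1 in RPMI/10% FCS were preincubated 2 h at 37 °C with compound, then exposed 1 h to Alexa fluor-647 labeled human PD-L1-Ig (177 nM final). Cells fixed in 4% paraformaldehyde with Hoechst 33342 and binding quantified by high-content imaging.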
# T1 sequence (Q15116 25-288): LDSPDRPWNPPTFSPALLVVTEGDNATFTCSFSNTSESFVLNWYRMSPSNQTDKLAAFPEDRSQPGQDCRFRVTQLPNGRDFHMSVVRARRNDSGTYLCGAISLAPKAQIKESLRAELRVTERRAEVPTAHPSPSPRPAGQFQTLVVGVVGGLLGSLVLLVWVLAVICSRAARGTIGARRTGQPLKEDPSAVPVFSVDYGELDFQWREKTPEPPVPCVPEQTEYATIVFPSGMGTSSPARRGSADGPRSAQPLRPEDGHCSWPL
row,Compound,IC50 [µM]
1,Cc1cccc(C[C@@H]2NC(=O)[C@H](CC(=O)O)NC(=O)[C@H](Cc3ccc(OCC(=O)O)cc3)NC(=O)[C@H](CN3CCOCC3)NC(=O)CSC[C@@H](C(=O)N[C@@H](CCN)C(N)=O)NC(=O)[C@H](CCCN)NC(=O)[C@H](C(C)C)NC(=O)[C@H](CC3CCCCC3)NC(=O)[C@H](CCN)NC(=O)[C@@H](CC(C)C)NC(=O)[C@H](C)N(C)C(=O)[C@H](CCC(N)=O)NC(=O)[C@H](Cc3ccc(-c4ccccc4)cc3)NC(=O)[C@H](CCc3ccccc3)NC2=O)c1 [Example 5217] ({CH2CO}-[Ala(morpholin-4-yl)]Y(Carboxymethyl)D[Phe(3-Me)][hPhe][Bip]Q[NMeA][dL][Dab][Cha]V[Orn]C[Dab]-NH2; thioether N-14),0.26
2,Cc1cccc(C[C@@H]2NC(=O)[C@H](CC(=O)O)NC(=O)[C@H](Cc3ccc(OCC(=O)O)cc3)NC(=O)[C@H](CN3CCOCC3)NC(=O)CSC[C@@H](C(=O)N[C@@H](CCN)C(N)=O)NC(=O)[C@H](CCCN)NC(=O)[C@H](C(C)C)NC(=O)[C@H](CC3CCCCC3)NC(=O)[C@H](CCN)NC(=O)[C@@H](CC(C)C)NC(=O)[C@H](C)N(C)C(=O)[C@H](CCC(N)=O)NC(=O)[C@H](Cc3ccc(-c4ccccc4)cc3)NC(=O)[C@H](Cc3ccc(-c4cccc(S(=O)(=O)N5CCOCC5)c4)cc3)NC2=O)c1 [Example 5107] ({CH2CO}-[Ala(morpholin-4-yl)]Y(Carboxymethyl)D[Phe(3-Me)][X26][Bip]Q[NMeA][dL][Dab][Cha]V[Orn]C[Dab]-NH2; thioether N-14),0.33
3,CC(=O)Nc1ccc(-c2ccc(C[C@@H]3NC(=O)[C@H](Cc4cccc(C)c4)NC(=O)[C@H](CC(=O)O)NC(=O)[C@H](Cc4ccc(-c5ccc(C(=O)O)cc5)cc4)NC(=O)[C@H]([C@@H](C)O)NC(=O)CSC[C@@H](C(=O)N[C@@H](CCN)C(N)=O)NC(=O)[C@H](Cc4cnc[nH]4)NC(=O)[C@H](C(C)(C)O)NC(=O)[C@H](CC4CCCCC4)NC(=O)[C@H](CCN)NC(=O)[C@@H](CC(C)C)NC(=O)[C@H](C)N(C)C(=O)[C@H](Cc4ccc(OCC(=O)O)cc4)NC(=O)[C@H](Cc4ccc(-c5ccccc5)cc4)NC3=O)cc2)cc1 [Example 5132] ({CH2CO}-T[Bip(4'-COOH)]D[Phe(3-Me)][Bip(4'-NHAc)][Bip]Y(Carboxymethyl)[NMeA][dL][Dab][Cha][Val(3-OH)]HC[Dab]-NH2; thioether N-14),0.02
4,Cc1cccc(C[C@@H]2NC(=O)[C@H](CC(=O)O)NC(=O)[C@H](Cc3ccc(OCC(=O)O)cc3)NC(=O)[C@H](CN3CCOCC3)NC(=O)CSC[C@@H](C(=O)N[C@@H](CCN)C(N)=O)NC(=O)[C@H](CCCN)NC(=O)[C@H](C(C)C)NC(=O)[C@H](CC3CCCCC3)NC(=O)[C@H](CCN)NC(=O)[C@@H](CC(C)C)NC(=O)[C@H](C)N(C)C(=O)[C@H](CCC(N)=O)NC(=O)[C@H](Cc3ccc(-c4ccccc4)cc3)NC(=O)[C@H](Cc3ccc(-c4ccc(N)nc4)cc3)NC2=O)c1 [Example 5104] ({CH2CO}-[Ala(morpholin-4-yl)]Y(Carboxymethyl)D[Phe(3-Me)][X52][Bip]Q[NMeA][dL][Dab][Cha]V[Orn]C[Dab]-NH2; thioether N-14),0.05
5,CC(=O)Nc1ccc(-c2ccc(C[C@@H]3NC(=O)[C@H](Cc4cccc(C)c4)NC(=O)[C@H](CC(=O)O)NC(=O)[C@H](Cc4ccc(-c5ccc(C(=O)O)cc5)cc4)NC(=O)[C@H](CN4CCOCC4)NC(=O)CSC[C@@H](C(=O)N[C@@H](CCN)C(N)=O)NC(=O)[C@H](Cc4cnc[nH]4)NC(=O)[C@H](C(C)(C)O)NC(=O)[C@H](CC4CCCCC4)NC(=O)[C@H](CCN)NC(=O)[C@@H](CC(C)C)NC(=O)[C@H](C)N(C)C(=O)[C@H](Cc4ccc(OCC(=O)O)cc4)NC(=O)[C@H](Cc4ccc(-c5ccccc5)cc4)NC3=O)cc2)cc1 [Example 5134] ({CH2CO}-[Ala(morpholin-4-yl)][Bip(4'-COOH)]D[Phe(3-Me)][Bip(4'-NHAc)][Bip]Y(Carboxymethyl)[NMeA][dL][Dab][Cha][Val(3-OH)]HC[Dab]-NH2; thioether N-14),0.03
6,CC(=O)Nc1ccc(-c2ccc(C[C@@H]3NC(=O)[C@H](Cc4cccc(C(F)(F)F)c4)NC(=O)[C@H](CC(=O)O)NC(=O)[C@H](Cc4ccc(C(=O)O)cc4)NC(=O)[C@H](CC(C)C)NC(=O)CSC[C@@H](C(=O)N[C@@H](CCN)C(N)=O)NC(=O)[C@H](CCCN)NC(=O)[C@H](C(C)C)NC(=O)[C@H](CC4CCCCC4)NC(=O)[C@H](CCN)NC(=O)[C@@H](CC(C)C)NC(=O)[C@H](C)N(C)C(=O)[C@H](CCCN)NC(=O)[C@H](Cc4ccc(-c5ccccc5)cc4)NC3=O)cc2)cc1 [Example 5096] ({CH2CO}-L[Phe(4-COOH)]D[Phe(3-CF3)][Bip(4'-NHAc)][Bip][Orn][NMeA][dL][Dab][Cha]V[Orn]C[Dab]-NH2; thioether N-14),0.04
7,CC(=O)Nc1ccc(-c2ccc(C[C@@H]3NC(=O)[C@H](Cc4cccc(C)c4)NC(=O)[C@H](CC(=O)O)NC(=O)[C@H](Cc4ccc(C(=O)O)cc4)NC(=O)[C@H](CC4CCCCC4)NC(=O)CSC[C@@H](C(=O)N[C@@H](CCN)C(N)=O)NC(=O)[C@H](CCC(=O)O)NC(=O)[C@H](C(C)C)NC(=O)[C@H](CC4CCCCC4)NC(=O)[C@H](CCN)NC(=O)[C@@H](CC(C)C)NC(=O)[C@H](C)N(C)C(=O)[C@H](Cc4ccc(C(=O)O)cc4)NC(=O)[C@H](Cc4ccc(-c5ccccc5)cc4)NC3=O)cc2)cc1 [Example 5199] ({CH2CO}-[Cha][Phe(4-COOH)]D[Phe(3-Me)][Bip(4'-NHAc)][Bip][Phe(4-COOH)][NMeA][dL][Dab][Cha]VEC[Dab]-NH2; thioether N-14),0.01

# Same assay, conditions: Jurkat-PD-1 cells, Alexa fluor-647 labeled PD-L1-Ig 177 nM; nM; read-out: CBA Method 3
row,Compound,IC50 [µM]
1,CC(C)C[C@H]1NC(=O)[C@H](C)N(C)C(=O)[C@H](CCC(N)=O)NC(=O)[C@H](Cc2ccc(-c3ccccc3)cc2)NC(=O)[C@H](CCc2ccccc2)NC(=O)[C@H](Cc2cccc(C(F)(F)F)c2)NC(=O)[C@H](CC(=O)O)NC(=O)[C@H](Cc2ccc(O)cc2)NC(=O)[C@H](CC2CCCCC2)NC(=O)CSC[C@@H](C(=O)N[C@@H](CCN)C(N)=O)NC(=O)[C@H](CCC(N)=O)NC(=O)[C@H](C(C)C)NC(=O)[C@H](CC2CCCCC2)NC(=O)[C@H](CCN)NC1=O [Example 5241] ({CH2CO}-[Cha]YD[Phe(3-CF3)][hPhe][Bip]Q[NMeA][dL][Dab][Cha]VQC[Dab]-NH2; thioether N-14),0.0004
2,Cc1cccc(C[C@@H]2NC(=O)[C@H](CC(=O)O)NC(=O)[C@H](Cc3ccc(OCC(=O)O)cc3)NC(=O)[C@H](C(C)(C)O)NC(=O)CSC[C@@H](C(=O)N[C@@H](CCN)C(N)=O)NC(=O)[C@H](CCCN)NC(=O)[C@H](C(C)C)NC(=O)[C@H](CC3CCCCC3)NC(=O)[C@H](CCN)NC(=O)[C@@H](CC(C)C)NC(=O)[C@H](C)N(C)C(=O)[C@H](CCC(N)=O)NC(=O)[C@H](Cc3ccc(-c4ccccc4)cc3)NC(=O)[C@H](Cc3ccc(C(=O)O)cc3)NC2=O)c1 [Example 5275] ({CH2CO}-[Val(3-OH)]Y(Carboxymethyl)D[Phe(3-Me)][Phe(4-COOH)][Bip]Q[NMeA][dL][Dab][Cha]V[Orn]C[Dab]-NH2; thioether N-14),0.0016
3,Cc1cccc(C[C@@H]2NC(=O)[C@H](CC(=O)O)NC(=O)[C@H](Cc3ccc(C(=O)O)cc3)NC(=O)[C@H](CC3CCCCC3)NC(=O)CSC[C@@H](C(=O)N[C@@H](CCN)C(N)=O)NC(=O)[C@H](CCC(=O)O)NC(=O)[C@H](C(C)C)NC(=O)[C@H](CC3CCCCC3)NC(=O)[C@H](CCN)NC(=O)[C@@H](CC(C)C)NC(=O)[C@H](C)N(C)C(=O)[C@H](Cc3ccc(C(=O)O)cc3)NC(=O)[C@H](Cc3ccc(-c4ccccc4)cc3)NC(=O)[C@H](Cc3ccc(OCC(=O)O)cc3)NC2=O)c1 [Example 5201] ({CH2CO}-[Cha][Phe(4-COOH)]D[Phe(3-Me)]Y(Carboxymethyl)[Bip][Phe(4-COOH)][NMeA][dL][Dab][Cha]VEC[Dab]-NH2; thioether N-14),0.0062
4,Cc1cccc(C[C@@H]2NC(=O)[C@H](CC(=O)O)NC(=O)[C@H](Cc3ccc(OCC(=O)O)cc3)NC(=O)[C@H](Cc3cccc(C(F)(F)F)c3)NC(=O)CSC[C@@H](C(=O)N[C@@H](CCN)C(N)=O)NC(=O)[C@H](CCCN)NC(=O)[C@H](C(C)C)NC(=O)[C@H](CC3CCCCC3)NC(=O)[C@H](CCN)NC(=O)[C@@H](CC(C)C)NC(=O)[C@H](C)N(C)C(=O)[C@H](CCC(N)=O)NC(=O)[C@H](Cc3ccc(-c4ccccc4)cc3)NC(=O)[C@H](Cc3ccc(C(=O)O)cc3)NC2=O)c1 [Example 5276] ({CH2CO}-[Phe(3-CF3)]Y(Carboxymethyl)D[Phe(3-Me)][Phe(4-COOH)][Bip]Q[NMeA][dL][Dab][Cha]V[Orn]C[Dab]-NH2; thioether N-14),0.0011
5,CC(=O)Nc1ccc(-c2ccc(C[C@@H]3NC(=O)[C@H](Cc4cccc(C(F)(F)F)c4)NC(=O)[C@H](CC(=O)O)NC(=O)[C@H](Cc4ccc(C(=O)O)cc4)NC(=O)[C@H](CN4CCOCC4)NC(=O)CSC[C@@H](C(=O)N[C@@H](CCN)C(N)=O)NC(=O)[C@H](CCC(=O)O)NC(=O)[C@H](C(C)C)NC(=O)[C@H](CC4CCCCC4)NC(=O)[C@H](CCN)NC(=O)[C@@H](CC(C)C)NC(=O)[C@H](C)N(C)C(=O)[C@H](Cc4ccc(C(=O)O)cc4)NC(=O)[C@H](Cc4ccc(-c5ccccc5)cc4)NC3=O)cc2)cc1 [Example 5149] ({CH2CO}-[Ala(morpholin-4-yl)][Phe(4-COOH)]D[Phe(3-CF3)][Bip(4'-NHAc)][Bip][Phe(4-COOH)][NMeA][dL][Dab][Cha]VEC[Dab]-NH2; thioether N-14),0.0059
6,CC(=O)Nc1ccc(-c2ccc(C[C@@H]3NC(=O)[C@H](Cc4cccc(C)c4)NC(=O)[C@H](CC(=O)O)NC(=O)[C@H](CCCn4cc(-c5ccccc5)nn4)NC(=O)[C@H](CN4CCOCC4)NC(=O)CSC[C@@H](C(=O)N[C@@H](CCN)C(N)=O)NC(=O)[C@H](CCC(N)=O)NC(=O)[C@H](C(C)C)NC(=O)[C@H](CC4CCCCC4)NC(=O)[C@H](CCN)NC(=O)[C@@H](CC(C)C)NC(=O)[C@H](C)N(C)C(=O)[C@H](Cc4ccc(C(=O)O)cc4)NC(=O)[C@H](Cc4ccc(-c5ccccc5)cc4)NC3=O)cc2)cc1 [Example 5295] ({CH2CO}-[Ala(morpholin-4-yl)][X38]D[Phe(3-Me)][Bip(4'-NHAc)][Bip][Phe(4-COOH)][NMeA][dL][Dab][Cha]VQC[Dab]-NH2; thioether N-14),0.0016

# Reference: patent publication US20240409585A1, “MACROCYCLIC IMMUNOMODULATORS” (priority 2021, published 2024)
